Laboratory results from ChEMBL document CHEMBL1641539 (Bioorg Med Chem Lett, 2011).

Assays:
[1] = molecular target: Protein kinase C iota type (Homo sapiens) (UniProt P41743); assay: Inhibition of human PKCiota at 10 uM after 60 mins by TR-FRET assay; values are per cent of control
[2] = molecular target: Tyrosine-protein kinase receptor TYRO3 (Homo sapiens) (UniProt Q06418); assay: Inhibition of human Rse at 10 uM after 60 mins by TR-FRET assay; details: values are per cent of control
[3] = test system: Proto-oncogene tyrosine-protein kinase receptor Ret (Homo sapiens), P07949 [V804M]; assay: Inhibition of human Ret V804M mutant at 10 uM after 60 mins by TR-FRET assay; values are per cent of control
Chain of Proto-oncogene tyrosine-protein kinase receptor Ret (Homo sapiens), P07949 [V804M] (P07949 whole entry V804M): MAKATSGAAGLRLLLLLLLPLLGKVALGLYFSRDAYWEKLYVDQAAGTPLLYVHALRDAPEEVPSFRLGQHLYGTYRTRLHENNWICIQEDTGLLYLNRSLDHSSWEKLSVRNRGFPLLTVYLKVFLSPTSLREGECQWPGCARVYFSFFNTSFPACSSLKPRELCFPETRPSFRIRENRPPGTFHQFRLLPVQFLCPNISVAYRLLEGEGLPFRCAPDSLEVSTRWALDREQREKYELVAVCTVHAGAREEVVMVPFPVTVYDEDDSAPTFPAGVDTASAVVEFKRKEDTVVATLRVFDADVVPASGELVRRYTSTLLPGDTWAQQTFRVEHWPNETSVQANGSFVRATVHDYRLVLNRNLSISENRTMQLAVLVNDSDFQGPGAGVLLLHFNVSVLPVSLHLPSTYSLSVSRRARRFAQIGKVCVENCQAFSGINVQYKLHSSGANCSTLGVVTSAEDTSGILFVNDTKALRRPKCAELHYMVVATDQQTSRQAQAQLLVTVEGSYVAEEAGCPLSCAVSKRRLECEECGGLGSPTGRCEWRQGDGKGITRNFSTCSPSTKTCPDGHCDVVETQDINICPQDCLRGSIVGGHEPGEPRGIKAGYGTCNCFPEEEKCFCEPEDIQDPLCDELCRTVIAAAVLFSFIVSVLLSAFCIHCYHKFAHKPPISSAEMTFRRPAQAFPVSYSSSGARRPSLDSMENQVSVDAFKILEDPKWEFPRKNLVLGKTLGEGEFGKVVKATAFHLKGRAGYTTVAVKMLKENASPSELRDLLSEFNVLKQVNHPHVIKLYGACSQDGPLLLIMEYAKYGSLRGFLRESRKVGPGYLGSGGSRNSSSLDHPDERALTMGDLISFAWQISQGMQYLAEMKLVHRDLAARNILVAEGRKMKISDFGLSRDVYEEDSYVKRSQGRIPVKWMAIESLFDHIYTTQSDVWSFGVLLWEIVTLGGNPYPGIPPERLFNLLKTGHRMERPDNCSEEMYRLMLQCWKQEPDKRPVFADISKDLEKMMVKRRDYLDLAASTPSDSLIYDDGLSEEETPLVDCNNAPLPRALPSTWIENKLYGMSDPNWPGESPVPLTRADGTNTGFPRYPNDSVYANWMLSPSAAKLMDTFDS

[4] = test system: Fibroblast growth factor receptor 2 (Homo sapiens), P21802 [N549H]; assay: Inhibition of human FGFR2 N549H mutant at 10 uM after 60 mins by TR-FRET assay; values are per cent of control
[5] = molecular target: Vascular endothelial growth factor receptor 3 (Homo sapiens) (UniProt P35916); assay: Inhibition of human Flt4 at 10 uM after 60 mins by TR-FRET assay; values are per cent of control
[6] = molecular target: Serine/threonine-protein kinase Nek3 (Homo sapiens) (UniProt P51956); assay: Inhibition of human NEK3 at 10 uM after 60 mins by TR-FRET assay; values are per cent of control
[7] = molecular target: Protein kinase C alpha type (Homo sapiens) (UniProt P17252); assay: Inhibition of human PKCalpha at 10 uM after 60 mins by TR-FRET assay; values are per cent of control
[8] = molecular target: Insulin receptor (Homo sapiens) (UniProt P06213); assay: Inhibition of human IR at 10 uM after 60 mins by TR-FRET assay; values are per cent of control
[9] = molecular target: Serine/threonine-protein kinase TBK1 (Homo sapiens) (UniProt Q9UHD2); assay: Inhibition of human TBK1 at 10 uM after 60 mins by TR-FRET assay; values are per cent of control
[10] = molecular target: Myosin light chain kinase, smooth muscle (Homo sapiens) (UniProt Q15746); assay: Inhibition of human MLCK at 10 uM after 60 mins by TR-FRET assay; values are per cent of control
[11] = molecular target: Serine/threonine-protein kinase Nek11 (Homo sapiens) (UniProt Q8NG66); assay: Inhibition of human NEK11 at 10 uM after 60 mins by TR-FRET assay; values are per cent of control
[12] = molecular target: ALK tyrosine kinase receptor (Homo sapiens) (UniProt Q9UM73); assay: Inhibition of human ALK at 10 uM after 60 mins by TR-FRET assay; values are per cent of control
Chain of ALK tyrosine kinase receptor (Homo sapiens) (Q9UM73 19-1620 limits assumed): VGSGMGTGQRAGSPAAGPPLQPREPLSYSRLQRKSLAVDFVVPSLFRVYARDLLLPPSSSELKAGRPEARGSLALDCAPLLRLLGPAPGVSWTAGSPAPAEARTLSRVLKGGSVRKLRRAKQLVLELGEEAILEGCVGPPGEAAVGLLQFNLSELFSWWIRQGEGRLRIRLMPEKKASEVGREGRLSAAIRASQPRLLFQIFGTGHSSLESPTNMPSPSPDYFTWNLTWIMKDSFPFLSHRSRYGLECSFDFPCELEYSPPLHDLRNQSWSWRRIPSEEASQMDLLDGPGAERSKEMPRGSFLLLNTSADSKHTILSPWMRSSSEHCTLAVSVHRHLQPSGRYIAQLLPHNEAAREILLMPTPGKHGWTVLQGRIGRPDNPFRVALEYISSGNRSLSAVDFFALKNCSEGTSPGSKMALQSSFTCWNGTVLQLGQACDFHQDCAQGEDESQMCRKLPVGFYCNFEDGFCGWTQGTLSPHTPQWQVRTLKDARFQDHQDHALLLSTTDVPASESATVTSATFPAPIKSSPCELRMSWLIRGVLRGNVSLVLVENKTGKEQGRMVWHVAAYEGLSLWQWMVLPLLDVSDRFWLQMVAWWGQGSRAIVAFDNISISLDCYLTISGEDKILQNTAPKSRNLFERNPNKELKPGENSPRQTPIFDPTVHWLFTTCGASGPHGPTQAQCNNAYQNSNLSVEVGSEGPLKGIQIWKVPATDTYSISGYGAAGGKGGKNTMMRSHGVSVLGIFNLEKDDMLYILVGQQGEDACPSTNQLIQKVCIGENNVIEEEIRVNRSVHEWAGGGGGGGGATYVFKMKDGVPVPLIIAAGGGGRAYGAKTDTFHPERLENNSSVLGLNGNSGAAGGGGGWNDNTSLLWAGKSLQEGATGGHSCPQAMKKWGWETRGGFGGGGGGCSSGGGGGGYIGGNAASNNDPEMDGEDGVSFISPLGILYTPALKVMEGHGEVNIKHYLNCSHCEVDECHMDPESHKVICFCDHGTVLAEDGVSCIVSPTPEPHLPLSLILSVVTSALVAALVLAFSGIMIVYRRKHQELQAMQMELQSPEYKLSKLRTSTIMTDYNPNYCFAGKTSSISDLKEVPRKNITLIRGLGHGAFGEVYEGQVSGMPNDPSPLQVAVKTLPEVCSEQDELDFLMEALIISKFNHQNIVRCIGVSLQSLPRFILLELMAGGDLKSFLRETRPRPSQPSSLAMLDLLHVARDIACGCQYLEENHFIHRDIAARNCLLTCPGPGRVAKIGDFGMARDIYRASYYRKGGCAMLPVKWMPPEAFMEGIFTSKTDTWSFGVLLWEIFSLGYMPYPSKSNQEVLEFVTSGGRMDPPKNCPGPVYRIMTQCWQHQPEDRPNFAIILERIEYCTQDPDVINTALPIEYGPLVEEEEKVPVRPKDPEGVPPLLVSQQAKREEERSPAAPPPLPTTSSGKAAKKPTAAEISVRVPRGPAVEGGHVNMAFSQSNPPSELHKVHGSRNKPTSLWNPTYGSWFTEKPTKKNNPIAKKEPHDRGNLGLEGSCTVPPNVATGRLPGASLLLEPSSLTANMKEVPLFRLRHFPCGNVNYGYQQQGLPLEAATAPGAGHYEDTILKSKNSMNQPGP

[13] = molecular target: Ephrin type-A receptor 7 (Homo sapiens) (UniProt Q15375); assay: Inhibition of human EphA7 at 10 uM after 60 mins by TR-FRET assay; values are per cent of control
[14] = molecular target: Homeodomain-interacting protein kinase 2 (Homo sapiens) (UniProt Q9H2X6); assay: Inhibition of human HIPK2 at 10 uM after 60 mins by TR-FRET assay; values are per cent of control
[15] = organism: Rattus norvegicus; assay: Inhibition of rat CaMK2 at 10 uM after 60 mins by TR-FRET assay; values are per cent of control
[16] = molecular target: Mitogen-activated protein kinase 9 (Homo sapiens, UniProt P45984); details: 10 uM
Description: Inhibition of human JNK2alpha2 at 10 uM after 60 mins by TR-FRET assay

[17] = molecular target: Ribosomal protein S6 kinase alpha-1 (Homo sapiens) (UniProt Q15418); assay: Inhibition of human Rsk1 at 10 uM after 60 mins by TR-FRET assay; details: values are per cent of control
[18] = test system: Serine/threonine-protein kinase Chk2 (Homo sapiens), O96017 [R145W]; assay: Inhibition of human CHK2 R145W mutant at 10 uM after 60 mins by TR-FRET assay; values are per cent of control
[19] = molecular target: Mitogen-activated protein kinase 1 (Mus musculus) (UniProt P63085); assay: Inhibition of mouse MAPK2 at 10 uM after 60 mins by TR-FRET assay; values are per cent of control
Chain of Mitogen-activated protein kinase 1 (Mus musculus) (P63085 whole entry): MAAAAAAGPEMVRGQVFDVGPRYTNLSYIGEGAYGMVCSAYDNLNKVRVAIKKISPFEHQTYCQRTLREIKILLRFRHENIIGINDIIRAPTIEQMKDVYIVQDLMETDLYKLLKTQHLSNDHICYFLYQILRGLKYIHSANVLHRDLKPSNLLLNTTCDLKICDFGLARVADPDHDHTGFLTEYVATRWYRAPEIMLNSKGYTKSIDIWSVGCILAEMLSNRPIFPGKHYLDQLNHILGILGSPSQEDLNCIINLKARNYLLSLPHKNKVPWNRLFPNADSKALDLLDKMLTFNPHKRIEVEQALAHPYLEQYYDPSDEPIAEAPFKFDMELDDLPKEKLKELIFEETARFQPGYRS

[20] = molecular target: Serine/threonine-protein kinase PAK 4 (Homo sapiens) (UniProt O96013); assay: Inhibition of human PAK4 at 10 uM after 60 mins by TR-FRET assay; values are per cent of control
Chain of Serine/threonine-protein kinase PAK 4 (Homo sapiens) (O96013 whole entry, looked up): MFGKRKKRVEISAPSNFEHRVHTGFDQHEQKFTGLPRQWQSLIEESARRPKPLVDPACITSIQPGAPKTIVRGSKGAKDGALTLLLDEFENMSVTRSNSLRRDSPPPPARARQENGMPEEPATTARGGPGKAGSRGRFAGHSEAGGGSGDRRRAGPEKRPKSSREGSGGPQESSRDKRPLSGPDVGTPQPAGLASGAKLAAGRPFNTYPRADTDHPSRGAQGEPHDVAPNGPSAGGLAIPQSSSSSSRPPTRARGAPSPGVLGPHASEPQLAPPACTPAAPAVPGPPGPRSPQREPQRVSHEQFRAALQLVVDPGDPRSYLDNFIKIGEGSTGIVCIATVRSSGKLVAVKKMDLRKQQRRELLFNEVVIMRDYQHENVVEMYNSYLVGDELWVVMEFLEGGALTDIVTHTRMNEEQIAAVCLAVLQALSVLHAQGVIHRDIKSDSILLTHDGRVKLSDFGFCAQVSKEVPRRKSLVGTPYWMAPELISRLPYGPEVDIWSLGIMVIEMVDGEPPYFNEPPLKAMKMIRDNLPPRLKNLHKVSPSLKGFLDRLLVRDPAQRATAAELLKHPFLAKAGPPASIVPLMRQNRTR

[21] = molecular target: Casein kinase II subunit alpha' (Homo sapiens) (UniProt P19784); assay: Inhibition of human CK2a2 at 10 uM after 60 mins by TR-FRET assay; values are per cent of control
[22] = test system: Proto-oncogene tyrosine-protein kinase Src (Homo sapiens), P12931 [T341M]; assay: Inhibition of human Src T341M mutant at 10 uM after 60 mins by TR-FRET assay; values are per cent of control
[23] = molecular target: Platelet-derived growth factor receptor beta (Homo sapiens) (UniProt P09619); assay: Inhibition of human PDGFRbeta at 10 uM after 60 mins by TR-FRET assay; values are per cent of control
[24] = molecular target: cGMP-dependent protein kinase 1 (Homo sapiens) (UniProt Q13976); assay: Inhibition of human PKG1alpha at 10 uM after 60 mins by TR-FRET assay; values are per cent of control
[25] = molecular target: Tyrosine-protein kinase ABL2 (Homo sapiens) (UniProt P42684); assay: Inhibition of human Arg at 10 uM after 60 mins by TR-FRET assay; values are per cent of control
[26] = molecular target: Serine/threonine-protein kinase TAO1 (Homo sapiens) (UniProt Q7L7X3); assay: Inhibition of human TAO1 at 10 uM after 60 mins by TR-FRET assay; values are per cent of control
[27] = molecular target: Calcium/calmodulin-dependent protein kinase type II subunit beta (Homo sapiens) (UniProt Q13554); assay: Inhibition of human CaMK2beta at 10 uM after 60 mins by TR-FRET assay; values are per cent of control
[28] = molecular target: Serine/threonine-protein kinase Sgk3 (Homo sapiens) (UniProt Q96BR1); assay: Inhibition of human SGK3 at 10 uM after 60 mins by TR-FRET assay; values are per cent of control

Chain of Protein kinase C iota type (Homo sapiens) (P41743 whole entry): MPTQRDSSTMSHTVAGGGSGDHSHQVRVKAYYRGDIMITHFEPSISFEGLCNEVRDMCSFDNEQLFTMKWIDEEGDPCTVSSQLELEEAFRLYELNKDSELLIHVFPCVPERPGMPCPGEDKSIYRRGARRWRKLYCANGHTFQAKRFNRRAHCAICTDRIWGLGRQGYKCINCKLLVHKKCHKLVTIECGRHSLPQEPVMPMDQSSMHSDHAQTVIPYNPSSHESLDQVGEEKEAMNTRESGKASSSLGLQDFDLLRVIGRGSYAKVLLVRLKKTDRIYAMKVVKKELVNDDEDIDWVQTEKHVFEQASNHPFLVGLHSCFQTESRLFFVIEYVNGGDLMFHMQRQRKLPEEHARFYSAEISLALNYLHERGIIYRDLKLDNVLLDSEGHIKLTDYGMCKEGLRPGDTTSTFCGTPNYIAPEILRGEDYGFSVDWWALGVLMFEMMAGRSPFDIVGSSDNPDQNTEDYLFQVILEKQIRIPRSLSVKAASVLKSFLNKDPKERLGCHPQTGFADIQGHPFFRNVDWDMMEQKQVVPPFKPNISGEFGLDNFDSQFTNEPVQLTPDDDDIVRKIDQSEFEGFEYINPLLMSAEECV

With S=c1[nH]nc(-c2ccncc2)n1-c1ccc2ccccc2c1 the residual activity [1] was 98%, the residual activity [2] was 116% and the residual activity [3] was 116%. The residual activity [4] was 91%, the residual activity [5] was 95% and the residual activity [6] was 118%. The residual activity [7] was 93%, the residual activity [8] was 106% and the residual activity [9] was 108%. The residual activity [10] was 103%, the residual activity [11] was 126% and the residual activity [12] was 101%. It also gave a residual activity [13] of 65%, a residual activity [14] of 95% and a residual activity [15] of 110%. The inhibition [16] was 88%, the residual activity [17] was 105% and the residual activity [18] was 108%. It also gave a residual activity [19] of 114%, a residual activity [20] of 112% and a residual activity [21] of 108%. For the same molecule, the residual activity [22] was 113%, the residual activity [23] was 99% and the residual activity [24] was 108%. For the same molecule, the residual activity [25] was 109%, the residual activity [26] was 104% and the residual activity [27] was 113%. It also gave a residual activity [28] of 102%.
